These results are taken from BindingDB's records for patent US9670214 (Dana-Farber Cancer Institute, 2017).

Assay [1] has as its target Non-specific protein-tyrosine kinase [T818I] (Homo sapiens, UniProt A9UEZ6, T818I). Description: Kinase Assay. The settings on record: pH 7.5. From the text: (§1) Recombinant abl was expressed in Sf9 insect cells and purified as described above. Bcr-abl immune complexes were obtained with Ab-3 anti-abl monoclonal antibody (Oncogene Science) from Ba/F3.p210 lysates as previously described. […] (Calbiochem buffer and protocol). The reaction was stopped by addition of Laemmli buffer and the proteins were resolved by SDS-PAGE in a 4-20% gel. The phosphoproteins were visualized by autoradiography and the autophosphorylation quantitated using a phosphoimager (STORM, Molecular Devices).

Assay [2] concerns the target Non-specific protein-tyrosine kinase (Homo sapiens, UniProt A9UEZ6). Description: Kinase Assay. The settings on record: pH 7.5.
Source text: as §1

Sequence of Non-specific protein-tyrosine kinase [T818I] (A9UEZ6 as listed by the source T818I): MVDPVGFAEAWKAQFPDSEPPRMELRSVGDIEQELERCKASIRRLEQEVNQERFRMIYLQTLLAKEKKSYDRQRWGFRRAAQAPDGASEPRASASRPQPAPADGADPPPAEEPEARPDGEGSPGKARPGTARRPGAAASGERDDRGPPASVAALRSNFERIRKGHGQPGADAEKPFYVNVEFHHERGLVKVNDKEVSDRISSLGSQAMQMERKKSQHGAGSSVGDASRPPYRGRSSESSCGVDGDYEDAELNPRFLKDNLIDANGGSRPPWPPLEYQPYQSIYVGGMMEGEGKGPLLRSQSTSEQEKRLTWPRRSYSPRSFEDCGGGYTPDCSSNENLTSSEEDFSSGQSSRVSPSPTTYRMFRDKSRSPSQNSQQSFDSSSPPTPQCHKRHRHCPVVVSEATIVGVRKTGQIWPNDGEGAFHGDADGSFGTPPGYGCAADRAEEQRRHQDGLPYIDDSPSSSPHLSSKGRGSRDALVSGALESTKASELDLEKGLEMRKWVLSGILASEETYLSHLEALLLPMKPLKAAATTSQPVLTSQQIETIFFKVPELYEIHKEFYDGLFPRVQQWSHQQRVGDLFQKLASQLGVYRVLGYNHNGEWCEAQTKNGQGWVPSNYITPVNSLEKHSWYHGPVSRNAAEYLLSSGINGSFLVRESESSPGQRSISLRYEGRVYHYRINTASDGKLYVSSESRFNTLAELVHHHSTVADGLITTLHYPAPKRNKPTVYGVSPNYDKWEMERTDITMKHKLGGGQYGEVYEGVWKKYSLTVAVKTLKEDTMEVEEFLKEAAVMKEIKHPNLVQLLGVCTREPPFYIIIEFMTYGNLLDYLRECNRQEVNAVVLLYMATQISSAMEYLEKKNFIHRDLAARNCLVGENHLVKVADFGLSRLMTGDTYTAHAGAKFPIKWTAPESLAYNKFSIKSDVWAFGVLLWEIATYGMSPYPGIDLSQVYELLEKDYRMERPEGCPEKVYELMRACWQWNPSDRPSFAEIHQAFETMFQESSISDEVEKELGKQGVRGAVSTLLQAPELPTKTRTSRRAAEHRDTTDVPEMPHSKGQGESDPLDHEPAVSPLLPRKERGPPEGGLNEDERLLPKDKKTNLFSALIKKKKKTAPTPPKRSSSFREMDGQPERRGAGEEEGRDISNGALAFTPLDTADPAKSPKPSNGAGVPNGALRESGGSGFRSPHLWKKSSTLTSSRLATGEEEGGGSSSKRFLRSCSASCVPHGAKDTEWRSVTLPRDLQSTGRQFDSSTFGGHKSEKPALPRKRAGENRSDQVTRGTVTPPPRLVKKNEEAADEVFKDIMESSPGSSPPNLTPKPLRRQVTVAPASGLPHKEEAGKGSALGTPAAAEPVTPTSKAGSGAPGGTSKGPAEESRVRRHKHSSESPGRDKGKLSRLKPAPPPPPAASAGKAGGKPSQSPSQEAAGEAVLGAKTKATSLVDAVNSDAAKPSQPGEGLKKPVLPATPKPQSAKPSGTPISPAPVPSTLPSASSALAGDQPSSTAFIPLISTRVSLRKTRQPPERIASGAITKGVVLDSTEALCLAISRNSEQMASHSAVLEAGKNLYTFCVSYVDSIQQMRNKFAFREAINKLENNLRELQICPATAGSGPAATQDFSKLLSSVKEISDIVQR
Sequence of Non-specific protein-tyrosine kinase (A9UEZ6 whole entry): as the sequence (A9UEZ6 as listed by the source T818I) above, with I818T counted along it

Usually IC50 stands for the point on the concentration scale where inhibition reaches its midpoint. With `FC(F)(F)Oc1ccc(Nc2ncnc3c2cnn3Cc2cccnc2)cc1` [US9670214, TABLE 10.30], the IC50 in assay [1] was determined as 600 nM; in assay [2], 30 nM.
